According to PubChem BioAssay AID2060509 (Molecular Pharmacology Branch, DTP, NCI, 2025):
pIC50: −log10 of the molar value.

Test system: 485176-168-R4-J1-PDC spheroids with HUVEC/MSC, viability
Test: Anticancer human tumor 485176-168-R4-J1-PDC patient-derived pancreatic adenocarcinoma cell line growth inhibition [GQUAD]
Conditions: for pIC50: curve of first compound; for viability, T/C: stronger effect = lower value
Method in brief: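 Tumor cells were grown as complex spheroids with HUVEC endothelial cells and mesenchymal stem cells as stroma. G-quadruplex stabilizers were combined with targeted agents over half-log dilutions from near the clinical Cmax, or from 10 microM.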

[1] = second compound 0.0316 µM, first compound 0.000999 µM
[2] = second compound 0.0316 µM, first compound 0.00316 µM
[3] = second compound 0.0316 µM, first compound 0.00999 µM
[4] = second compound 0.0316 µM, first compound 0.0316 µM
[5] = second compound 0.0316 µM, first compound 0.0999 µM
[6] = second compound 0.0316 µM, first compound 0.316 µM
[7] = second compound 0.1 µM, first compound 0.000999 µM
[8] = second compound 0.1 µM, first compound 0.00316 µM
[9] = second compound 0.1 µM, first compound 0.00999 µM
[10] = second compound 0.1 µM, first compound 0.0316 µM
[11] = second compound 0.1 µM, first compound 0.0999 µM
[12] = second compound 0.1 µM, first compound 0.316 µM
[13] = second compound 0.316 µM, first compound 0.000999 µM
[14] = second compound 0.316 µM, first compound 0.00316 µM
[15] = second compound 0.316 µM, first compound 0.00999 µM
[16] = second compound 0.316 µM, first compound 0.0316 µM
[17] = second compound 0.316 µM, first compound 0.0999 µM
[18] = second compound 0.316 µM, first compound 0.316 µM
[19] = second compound 1 µM, first compound 0.000999 µM
[20] = second compound 1 µM, first compound 0.00316 µM
[21] = second compound 1 µM, first compound 0.00999 µM
[22] = second compound 1 µM, first compound 0.0316 µM
[23] = second compound 1 µM, first compound 0.0999 µM
[24] = second compound 1 µM, first compound 0.316 µM
[25] = second compound 3.16 µM, first compound 0.000999 µM
[26] = second compound 3.16 µM, first compound 0.00316 µM
[27] = second compound 3.16 µM, first compound 0.00999 µM
[28] = second compound 3.16 µM, first compound 0.0316 µM
[29] = second compound 3.16 µM, first compound 0.0999 µM
[30] = second compound 3.16 µM, first compound 0.316 µM
[31] = second compound 10 µM, first compound 0.000999 µM
[32] = second compound 10 µM, first compound 0.00316 µM
[33] = second compound 10 µM, first compound 0.00999 µM
[34] = second compound 10 µM, first compound 0.0316 µM
[35] = second compound 10 µM, first compound 0.0999 µM
[36] = second compound 10 µM, first compound 0.316 µM
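Also: spheroids exposed to compounds for seven days before readout.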
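For viability, T/C in this document: percent viability relative to DMSO vehicle control wells as 100%.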

## Cn1ncnc1[C@H]1c2n[nH]c(=O)c3cc(F)cc(c23)N[C@@H]1c1ccc(F)cc1 + Cc1[nH]c2ccc(F)cc2c1-c1nc2c3cccnc3c3ncccc3c2[nH]1
Second compound 0.0316 µM
  pIC50: < 6.50
Second compound 0.1 µM
  pIC50: < 6.50
Second compound 0.316 µM
  pIC50: < 6.50
Second compound 1 µM
  pIC50: < 6.50
Second compound 3.16 µM
  pIC50: < 6.50
Second compound 10 µM
  pIC50: < 6.50
[1]
  viability, T/C: 109%
[2]
  viability, T/C: 80.7%
[3]
  viability, T/C: 103%
[4]
  viability, T/C: 86.6%
[5]
  viability, T/C: 91.8%
[6]
  viability, T/C: 109%
[7]
  viability, T/C: 90.9%
[8]
  viability, T/C: 92.2%
[9]
  viability, T/C: 88.3%
[10]
  viability, T/C: 109%
[11]
  viability, T/C: 93.4%
[12]
  viability, T/C: 99.5%
[13]
  viability, T/C: 78.3%
[14]
  viability, T/C: 95.6%
[15]
  viability, T/C: 101%
[16]
  viability, T/C: 117%
[17]
  viability, T/C: 97.9%
[18]
  viability, T/C: 84.4%
[19]
  viability, T/C: 77.2%
[20]
  viability, T/C: 90.2%
[21]
  viability, T/C: 94.3%
[22]
  viability, T/C: 90.5%
[23]
  viability, T/C: 87.2%
[24]
  viability, T/C: 88.9%
[25]
  viability, T/C: 85.5%
[26]
  viability, T/C: 89.3%
[27]
  viability, T/C: 86.2%
[28]
  viability, T/C: 79.7%
[29]
  viability, T/C: 96.4%
[30]
  viability, T/C: 85.1%
[31]
  viability, T/C: 106%
[32]
  viability, T/C: 86.2%
[33]
  viability, T/C: 89.5%
[34]
  viability, T/C: 77.9%
[35]
  viability, T/C: 91.7%
[36]
  viability, T/C: 78.5%

## O=c1[nH]cc(F)c(=O)[nH]1 + CN(C)c1ccc(Nc2c3ccc(NC(=O)CCN4CCCC4)cc3nc3cc(NC(=O)CCN4CCCC4)ccc23)cc1
Second compound 0.0316 µM
  pIC50: < 5.00
Second compound 0.1 µM
  pIC50: 5.58
Second compound 0.316 µM
  pIC50: < 5.00
Second compound 1 µM
  pIC50: < 5.00
Second compound 3.16 µM
  pIC50: < 5.00
Second compound 10 µM
  pIC50: 6.03
[4]
  viability, T/C: 100%
Second compound 0.0316 µM, first compound 0.1 µM
  viability, T/C: 105%
[6]
  viability, T/C: 78.8%
Second compound 0.0316 µM, first compound 1 µM
  viability, T/C: 61.8%
Second compound 0.0316 µM, first compound 3.16 µM
  viability, T/C: 53.6%
Second compound 0.0316 µM, first compound 10 µM
  viability, T/C: 53.6%
[10]
  viability, T/C: 102%
Second compound 0.1 µM, first compound 0.1 µM
  viability, T/C: 87.7%
[12]
  viability, T/C: 88.8%
Second compound 0.1 µM, first compound 1 µM
  viability, T/C: 56.2%
Second compound 0.1 µM, first compound 3.16 µM
  viability, T/C: 46.3%
Second compound 0.1 µM, first compound 10 µM
  viability, T/C: 51%
[16]
  viability, T/C: 97.3%
Second compound 0.316 µM, first compound 0.1 µM
  viability, T/C: 91.5%
[18]
  viability, T/C: 83.3%
Second compound 0.316 µM, first compound 1 µM
  viability, T/C: 52%
Second compound 0.316 µM, first compound 3.16 µM
  viability, T/C: 66.1%
Second compound 0.316 µM, first compound 10 µM
  viability, T/C: 57.2%
[22]
  viability, T/C: 94.4%
Second compound 1 µM, first compound 0.1 µM
  viability, T/C: 106%
[24]
  viability, T/C: 71.4%
Second compound 1 µM, first compound 1 µM
  viability, T/C: 56.1%
Second compound 1 µM, first compound 3.16 µM
  viability, T/C: 52%
Second compound 1 µM, first compound 10 µM
  viability, T/C: 53.2%
[28]
  viability, T/C: 90.8%
Second compound 3.16 µM, first compound 0.1 µM
  viability, T/C: 94.1%
[30]
  viability, T/C: 73.9%
Second compound 3.16 µM, first compound 1 µM
  viability, T/C: 59.6%
Second compound 3.16 µM, first compound 3.16 µM
  viability, T/C: 61.8%
Second compound 3.16 µM, first compound 10 µM
  viability, T/C: 47.2%
[34]
  viability, T/C: 84.9%
Second compound 10 µM, first compound 0.1 µM
  viability, T/C: 80.2%
[36]
  viability, T/C: 59.9%
Second compound 10 µM, first compound 1 µM
  viability, T/C: 51.4%
Second compound 10 µM, first compound 3.16 µM
  viability, T/C: 46.4%
Second compound 10 µM, first compound 10 µM
  viability, T/C: 45.5%

## Cn1ncnc1[C@H]1c2n[nH]c(=O)c3cc(F)cc(c23)N[C@@H]1c1ccc(F)cc1 + Cc1cnc(CNC(=O)c2c(=O)c3ccc(N4CCCN(C)CC4)nc3n3c2sc2ccccc23)cn1
Second compound 0.0316 µM
  pIC50: < 6.50
Second compound 0.1 µM
  pIC50: < 6.50
Second compound 0.316 µM
  pIC50: < 6.50
Second compound 1 µM
  pIC50: < 6.50
Second compound 3.16 µM
  pIC50: 8.13
Second compound 10 µM
  pIC50: > 9.00
[1]
  viability, T/C: 90.2%
[2]
  viability, T/C: 79%
[3]
  viability, T/C: 91.5%
[4]
  viability, T/C: 90.2%
[5]
  viability, T/C: 91.4%
[6]
  viability, T/C: 80.8%
[7]
  viability, T/C: 74.4%
[8]
  viability, T/C: 91.7%
[9]
  viability, T/C: 75.8%
[10]
  viability, T/C: 77.3%
[11]
  viability, T/C: 78.9%
[12]
  viability, T/C: 69.9%
[13]
  viability, T/C: 63.6%
[14]
  viability, T/C: 70.5%
[15]
  viability, T/C: 64.8%
[16]
  viability, T/C: 62.7%
[17]
  viability, T/C: 56.2%
[18]
  viability, T/C: 68.7%
[19]
  viability, T/C: 49.3%
[20]
  viability, T/C: 61.2%
[21]
  viability, T/C: 74%
[22]
  viability, T/C: 51.8%
[23]
  viability, T/C: 52.8%
[24]
  viability, T/C: 48.5%
[25]
  viability, T/C: 45.4%
[26]
  viability, T/C: 63.9%
[27]
  viability, T/C: 48.3%
[28]
  viability, T/C: 45.3%
[29]
  viability, T/C: 45.4%
[30]
  viability, T/C: 40%
[31]
  viability, T/C: 42.8%
[32]
  viability, T/C: 48.4%
[33]
  viability, T/C: 39.2%
[34]
  viability, T/C: 34.8%
[35]
  viability, T/C: 38.1%
[36]
  viability, T/C: 33.5%

## Cc1[nH]c2ccccc2c1CCNCc1ccc(/C=C/C(=O)NO)cc1 + Cc1[nH]c2ccc(F)cc2c1-c1nc2c3cccnc3c3ncccc3c2[nH]1
Second compound 0.0316 µM
  pIC50: 6.80
Second compound 0.1 µM
  pIC50: 6.79
Second compound 0.316 µM
  pIC50: 6.77
Second compound 1 µM
  pIC50: 6.79
Second compound 3.16 µM
  pIC50: 6.89
Second compound 10 µM
  pIC50: 6.82
[1]
  viability, T/C: 99.1%
[2]
  viability, T/C: 106%
[3]
  viability, T/C: 96.3%
[4]
  viability, T/C: 97%
[5]
  viability, T/C: 77.1%
[6]
  viability, T/C: 9.63%
[7]
  viability, T/C: 105%
[8]
  viability, T/C: 104%
[9]
  viability, T/C: 89.5%
[10]
  viability, T/C: 89%
[11]
  viability, T/C: 78.7%
[12]
  viability, T/C: 15.7%
[13]
  viability, T/C: 103%
[14]
  viability, T/C: 89.9%
[15]
  viability, T/C: 80%
[16]
  viability, T/C: 82.4%
[17]
  viability, T/C: 81.3%
[18]
  viability, T/C: 15.3%
[19]
  viability, T/C: 82.4%
[20]
  viability, T/C: 89.7%
[21]
  viability, T/C: 95%
[22]
  viability, T/C: 89.3%
[23]
  viability, T/C: 72.8%
[24]
  viability, T/C: 19.7%
[25]
  viability, T/C: 79.5%
[26]
  viability, T/C: 93%
[27]
  viability, T/C: 80%
[28]
  viability, T/C: 74.3%
[29]
  viability, T/C: 61%
[30]
  viability, T/C: 15.5%
[31]
  viability, T/C: 85.8%
[32]
  viability, T/C: 93.7%
[33]
  viability, T/C: 88.6%
[34]
  viability, T/C: 68.4%
[35]
  viability, T/C: 73.2%
[36]
  viability, T/C: 18.8%
